Where two headings read alike, the source gives them in different places.
Assays:
TXK = target: T1, TXK (Homo sapiens, UniProt P42681); experiment: KINOMEscan ScanTK; type: binding
T1 construct: purchased Eurofins DiscoverX KINOMEscan (scanTK)
T1 sequence (P42681 1-527): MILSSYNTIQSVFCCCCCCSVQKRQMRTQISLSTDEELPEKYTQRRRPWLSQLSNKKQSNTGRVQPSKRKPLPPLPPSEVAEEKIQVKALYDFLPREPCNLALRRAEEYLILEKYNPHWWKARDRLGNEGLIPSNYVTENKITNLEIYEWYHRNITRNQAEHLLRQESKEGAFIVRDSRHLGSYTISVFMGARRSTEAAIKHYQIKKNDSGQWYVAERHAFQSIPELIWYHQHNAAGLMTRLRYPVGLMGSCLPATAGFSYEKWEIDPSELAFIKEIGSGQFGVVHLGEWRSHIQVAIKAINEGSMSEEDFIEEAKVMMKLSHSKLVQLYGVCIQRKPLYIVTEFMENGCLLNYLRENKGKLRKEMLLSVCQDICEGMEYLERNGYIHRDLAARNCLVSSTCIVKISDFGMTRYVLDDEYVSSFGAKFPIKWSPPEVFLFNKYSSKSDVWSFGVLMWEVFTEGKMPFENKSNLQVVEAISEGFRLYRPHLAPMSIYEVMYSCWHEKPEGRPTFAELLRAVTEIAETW

[1] = tested on: full-length wild-type BTK; experiment: Intact protein mass spectrometry, covalent modification; type: binding; conditions: 2:1 ratio of compound to protein (40 μM/20 μM), 23 °C
OCI-LY7 cells = experiment: Anti-IgM-induced Ca2+ flux assay; type: cell-based, human; conditions: 1 h pretreatment, 1000 nM or lower concentrations
Experimental: The effects of compounds on Ca^2+ release were then analyzed following treatment of OCI-LY7 cells (derived from a diffuse large B-cell lymphoma (DLBCL)) with anti-IgM to cross-link surface IgM (sIgM). […] For 8a and 8d, we performed similar experiments at lower concentrations.
Flow cytometry was performed using a FACS Canto II system (BD Biosciences). Data was acquired for 30 s before cells were stimulated with goat antihuman F(ab’)2 anti-IgM and data were acquired for a further 3.5 min. Cells were then treated with ionomycin (1 μM; Merck) and data were acquired for 2 min. Calcium responses were quantified by calculating area under the curve (AUC) in FlowJo (Becton Dickinson) from the point of addition of anti-IgM to the addition of ionomycin.

[2] = Electrophilic reactivity assessment (GSH assay); conditions: for stability/reactivity with 10-fold excess of GSH in PBS: up to 6 h at 20 °C, LC-MS
EGFR = target: T2, EGFR (Homo sapiens, UniProt P00533); experiment: KINOMEscan ScanTK; type: binding; conditions: for difference in %Control versus reference compound Ib at 1 µM / remaining binding at 1 µM: EGFR; for inhibition at 1 µM: ScanTK, WT EGFR
T2 construct: purchased Eurofins DiscoverX KINOMEscan (scanTK)

Plasma stability assay = type: in vitro ADME; conditions: 3 h incubation at 37 °C; 50% human plasma; 1 μM compound

T2 sequence (P00533 25-1210): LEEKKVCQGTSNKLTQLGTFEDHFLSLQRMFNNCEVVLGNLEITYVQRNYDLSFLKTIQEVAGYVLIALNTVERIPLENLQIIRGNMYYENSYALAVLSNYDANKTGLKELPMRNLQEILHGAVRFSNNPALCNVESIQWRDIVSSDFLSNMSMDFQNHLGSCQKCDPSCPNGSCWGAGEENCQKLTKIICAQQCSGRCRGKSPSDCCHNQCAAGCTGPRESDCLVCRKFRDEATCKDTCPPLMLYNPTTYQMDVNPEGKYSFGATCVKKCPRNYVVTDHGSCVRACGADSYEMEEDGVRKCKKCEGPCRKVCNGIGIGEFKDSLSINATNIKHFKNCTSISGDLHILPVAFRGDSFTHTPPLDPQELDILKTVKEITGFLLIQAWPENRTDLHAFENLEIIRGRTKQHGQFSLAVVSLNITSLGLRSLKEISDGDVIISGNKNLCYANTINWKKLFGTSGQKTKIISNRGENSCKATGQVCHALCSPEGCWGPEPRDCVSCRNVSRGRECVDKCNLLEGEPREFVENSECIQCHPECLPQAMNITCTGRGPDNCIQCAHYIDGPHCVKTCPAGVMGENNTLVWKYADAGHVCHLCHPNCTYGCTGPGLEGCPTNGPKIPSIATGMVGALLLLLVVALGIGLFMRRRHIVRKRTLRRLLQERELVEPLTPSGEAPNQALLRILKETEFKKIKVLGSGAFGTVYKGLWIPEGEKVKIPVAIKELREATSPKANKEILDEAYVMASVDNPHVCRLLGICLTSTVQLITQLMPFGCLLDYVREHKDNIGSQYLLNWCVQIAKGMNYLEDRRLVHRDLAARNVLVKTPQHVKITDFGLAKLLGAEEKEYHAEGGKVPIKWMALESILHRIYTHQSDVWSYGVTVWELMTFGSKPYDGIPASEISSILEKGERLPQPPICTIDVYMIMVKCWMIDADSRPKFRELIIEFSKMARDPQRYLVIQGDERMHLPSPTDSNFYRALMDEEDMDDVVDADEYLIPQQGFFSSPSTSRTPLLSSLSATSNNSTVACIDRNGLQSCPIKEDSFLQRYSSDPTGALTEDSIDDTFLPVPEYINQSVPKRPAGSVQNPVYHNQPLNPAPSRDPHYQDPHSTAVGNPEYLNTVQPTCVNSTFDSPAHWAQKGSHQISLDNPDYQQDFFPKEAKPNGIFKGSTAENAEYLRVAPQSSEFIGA

SMILES | remaining binding at 1 µM (TXK; @1000nM, read-out: %Control) | remaining binding at 1 µM (TXK; read-out: %Control @1000nM) | difference in %Control versus reference compound Ib at 1 µM (EGFR; @1000nM) | remaining binding at 1 µM (EGFR; @1000nM, read-out: %Control) | remaining binding at 1 µM (EGFR; read-out: %Control @1000nM) | inhibition at 1 µM (EGFR) | % compound remaining, human plasma stability (Plasma stability assay) | covalent modification of full-length WT BTK (intact mass) [1] | effect on anti-IgM-induced Ca2+ flux (OCI-LY7 cells) | stability/reactivity with 10-fold excess of GSH in PBS [2] | pseudo-first-order rate constant kGSH/PBS ([2]; 100 μM compound, 1 mM GSH, PBS pH 7.4, 20 °C, triplicate)
C=CC(=O)N1CCC[C@@H](n2nc(-c3ccc(Oc4ccccc4)cc3)c3c(N)ncnc32)C1 [Compound 1g, Ibrutinib, reference compound] | 8.7% | 8.7% | – | – | – | – | – | modified full-length BTK | – | – | –
Cc1cnc(S(C)(=O)=O)nc1N1CCCC(n2nc(-c3ccc(Oc4ccccc4)cc3)c3c(N)ncnc32)C1 (centres unmarked) [Compound 8a, 1-(1-(5-Methyl-2-(methylsulfonyl)pyrimidin-4-yl)piperidin-3-yl)-3-(4-phenoxyphenyl)-1H-pyrazolo[3,4-d]pyrimidin-4-amine] | 14% | 14% | 52.8% | 53% | 53% | 47% | – | – | maintained for these compounds at concentrations down to 250 nM | fully stable | –
CNC(=O)c1cnc(S(C)(=O)=O)nc1N1CCCC(n2nc(-c3ccc(Oc4ccccc4)cc3)c3c(N)ncnc32)C1 (centres unmarked) [Compound 8d, 4-(3-(4-Amino-3-(4-phenoxyphenyl)-1H-pyrazolo[3,4-d]pyrimidin-1-yl)piperidin-1-yl)-N-methyl-2-(methylsulfonyl)pyrimidine-5-carboxamide] | 10% | 10% | 16.8% | 17% | 17% | 83% | – | clean and quantitative modification in under an hour | maintained for these compounds at concentrations down to 250 nM | mild reactivity | 47 × 10^–5 ± 0.5 × 10^–5 s^–1

The next lines start with results.

remaining binding at 1 µM (TXK; @1000nM, read-out: %Control) | remaining binding at 1 µM (TXK; read-out: %Control @1000nM) | difference in %Control versus reference compound Ib at 1 µM (EGFR; @1000nM) | remaining binding at 1 µM (EGFR; @1000nM, read-out: %Control) | remaining binding at 1 µM (EGFR; read-out: %Control @1000nM) | inhibition at 1 µM (EGFR) | % compound remaining, human plasma stability (Plasma stability assay) | SMILES | covalent modification of full-length WT BTK (intact mass) [1] | effect on anti-IgM-induced Ca2+ flux (OCI-LY7 cells) | stability/reactivity with 10-fold excess of GSH in PBS [2] | pseudo-first-order rate constant kGSH/PBS ([2]; 100 μM compound, 1 mM GSH, PBS pH 7.4, 20 °C, triplicate)
11% | 11% | 32.8% | 33% | 33% | 67% | 20–50% | COC(=O)c1cnc(S(C)(=O)=O)nc1N1CCCC(n2nc(-c3ccc(Oc4ccccc4)cc3)c3c(N)ncnc32)C1 (centres unmarked) [Compound 8b, Methyl 4-(3-(4-Amino-3-(4-phenoxyphenyl)-1H-pyrazolo[3,4-d]pyrimidin-1-yl)piperidin-1-yl)-2-(methylsulfonyl)pyrimidine-5-carboxylate] | – | – | – | –
12% | 12% | 42.8% | 43% | 43% | 57% | 20–50% | CCOC(=O)c1cnc(S(C)(=O)=O)nc1N1CCC[C@@H](n2nc(-c3ccc(Oc4ccccc4)cc3)c3c(N)ncnc32)C1 [Compound 8c, Ethyl (R)-4-(3-(4-Amino-3-(4-phenoxyphenyl)-1H-pyrazolo[3,4-d]pyrimidin-1-yl)piperidin-1-yl)-2-(methylsulfonyl)pyrimidine-5-carboxylate] | – | – | – | –

— article PMC11345841, “Exploring 2-Sulfonylpyrimidine Warheads as Acrylamide Surrogates for Targeted Covalent Inhibition: A BTK Story” (Journal of Medicinal Chemistry, 2024)
